# Reference: patent publication US20080287396A1, “Phosphonated Fluoroquinolones, Antibacterial Analogs Thereof, and Methods for the Prevention and Treatment of Bone and Joint Infections” (TARGANTA THERAPEUTICA INC., priority 2005, published 2008)
# How the values were obtained:
# [1] = Bone powder binding, fluorometric detection; conditions: for Binding to bone (%) Fluorescence: 1 mg/ml compound, bone meal powder 10 mg/ml in PBS, 37° C., 1 h; for binding to osseous matter, in words: bisphosphonates bearing three hydroxy groups
# Procedure: The ability of the example molecules to bind to bone powder was established in two parallel fashions, using either LC/MS or fluorometric detection. For LC/MS detection, a stock solution (5 mM) of the compound to be tested was added to 0.1M Tris-HCl buffer pH 7, 0.15M NaCl to reach a final concentration of 100 μM. Triplicate samples (1 mL) of the compound solutions were intensively shaken for 10 min with or without 25 mg of fresh or 20 mg of vacuum dried ground rat tibia bone. The samples were then centrifuged for 15 min at 10 000 g. The presence of unbound compound was measured by injection of 30 μL of each of the supernatants into an Agilent 1100™ LC/UV system. For fluorometric detection, an individual compound was dissolved in PBS or water (compound 52) and resuspended at a concentration of 1 mg/ml in a slurry of bone meal powder (Now Foods, Bloomingdale, Ill., USA) in PBS at 10 mg/ml. The suspension of drug/prodrug in bone meal powder was incubated at 37° C. for 1 h to allow for binding, and centrifuged at 13 000 rpm for 2 min, before recovering the supernatant. The bone meal powder pellet was then washed three times with 1 ml of PBS. All supernatants were saved and assessed for fluoroquinolone content by fluorescence measurements at excitation/emission wavelengths of 280/465 nm. The amount of fluoroquinolone was determined from standard curves generated for each experiment. Amount of drug/prodrug bound to bone powder was deduced from the difference between the input amount (typically 1 mg) and the amount recovered in the supernatants after binding. In all binding experiments, >99% of input drug was recovered in the supernatant for the parent drugs.
# S. aureus ATCC 13709 = assay: Prophylactic model of bone infection in rats; format: in vivo, rat; conditions: for prophylactic effect in rat model of bone infection, in words: Table 4 and FIGS. 6-8, doses as in Table 4
# Procedure: To determine the activity in vivo of bisphosphonated prodrugs of fluoroquinolones, compounds 52 and 107, derivatives of parent compounds moxifloxacin 3 (for 52), and compounds 39, 44, 49, 54, 121, 129, 141, 145, 149, derivatives of parent compound gatifloxacin 15, were used in a prophylactic model for infection. Specifically, S. aureus ATCC 13709 cells were grown overnight at 37° C. in brain heart infusion broth (BHIB). Cells were subcultured into fresh BHIB and incubated for 4 to 5 h at 37° C. The cells were washed twice with phosphate-buffered saline (PBS) and resuspended in BHIB supplemented with 10% (vol./vol.) fetal bovine serum at a density of approximately 10^10 colony forming units (CFU)/ml (based upon turbidimetry). The suspension was aliquoted and a portion was used to check the CFU count. The culture was stored frozen (−80° C.) and was used without subculture. For use as an inoculum the culture was thawed, diluted in PBS and kept in an ice bath until it was used.
# Animals were infected as described by O'Reilly et al. (Antimicrobial Agents and Chemotherapy (1992), 36(12): 2693-97) to generate the bone infection. Female CD rats (age, 57 to 70 days; n=5/group; Charles River, St-Constant, Canada) were anaesthetized by isofluorane before and during the surgery. Following complete induction of anesthesia, the rat was placed ventral side up and hair was shaved from the surgical site. The skin over the leg was cleaned and disinfected (proviodine-ethanol 70%). A longitudinal incision below the knee joint was made in the sagital plane. The incision was made over the bone below the “knee joint” (tibia head or condyle) but not completely extending to the ankle. A high speed drill fitted with a 2 mm bulb bit was used to drill a hole into the medullar cavity of the tibia. Rats were injected intra-tibially with 0.05 ml 5% sodium morrhuate (sclerosing agent) and then with 0.05 ml of S. aureus suspension (ca. 5×10^5 CFU/rat). The hole was sealed by applying a small amount of dry dental cement which immediately absorbs fluids and adheres to the site. The wound was closed using 3 metal skin clips. Moxifloxacin 3 (as a positive control) was injected once at 10 mg/kg intravenously 1 h postinfection in saline, while the fluoroquinolone prodrugs (prepared in 0.9% saline) were injected as a single intravenous bolus dose at different time points prior to the infection. For comparison, the parent drug (moxifloxacin 3 or gatifloxacin 15) was also injected intravenously once at a molar equivalent dose at the same time point prior the infection.
# Infected rats were sacrificed by CO2 asphyxiation 24 h postinfection to monitor the bacterial CFU count. Infected tibiae were removed, dissected free of soft tissue, and weighed. The bones were ground using a metal ball mill, resuspended in 5 ml 0.9% NaCl, serially diluted and processed for quantitative cultures. For compounds 39, 44, 49, 54, 141, 145, 149, 1 ml of the 0.9% NaCl solution was added to 50 mg of charcoal before serial dilutions. Treatment efficacies were measured in terms of Log viable bacteria (Log CFU per gram of bone). The results obtained for each group of rats were evaluated by calculating the mean Log CFU and standard deviation. The limit of detection is 2 Log CFU/g of bone. Statistical comparisons of viable bacterial counts for the different treated and untreated groups were performed with Dunnett's multiple-comparison test. Differences were considered significant when the P value was <0.05 when comparing treated infected animals to the untreated infected ones.
Binding to bone (%) Fluorescence [1],SMILES,"prophylactic effect in rat model of bone infection, in words (S. aureus ATCC 13709)",other results
0%,"O=C(O)c1cn(C2CC2)c2cc(N3CCNCC3)c(F)cc2c1=O [Compound 6, Ciprofloxacin, reference compound]",–,–
97.2%,"COc1c(N2C[C@@H]3CCCN[C@@H]3C2)c(F)cc2c(=O)c(C(=O)OCC(=O)Nc3ccc(CC(P(=O)(O)O)P(=O)(O)O)cc3)cn(C3CC3)c12 [Compound 62, (4-(2,2-Bisphosphonoethyl)phenylcarbamoyl)methyl 1-cyclopropyl-6-fluoro-1,4-dihydro-7-((4aS,7aS)-octahydropyrrolo[3,4-b]pyridin-6-yl)-8-methoxy-4-oxoquinoline-3-carboxylate]",–,–
97.3%,"COc1c(N2C[C@@H]3CCCN[C@@H]3C2)c(F)cc2c(=O)c(C(=O)OCC(=O)N(C)C(P(=O)(O)O)P(=O)(O)O)cn(C3CC3)c12 [Compound 80, (N-Methyl-1,1-Bisphosphonomethylcarbamoyl)methyl 1-cyclopropyl-6-fluoro-1,4-dihydro-7-((4aS,7aS)-octahydropyrrolo[3,4-b]pyridin-6-yl)-8-methoxy-4-oxoquinoline-3-carboxylate]",–,–
99.9%,"COc1c(N2C[C@@H]3CCCN[C@@H]3C2)c(F)cc2c(=O)c(C(=O)SCCCC(P(=O)(O)O)P(=O)(O)O)cn(C3CC3)c12 [Compound 94, S-4,4-bisphosphonobutyl 7-((4aS,7aS)-octahydropyrrolo[3,4-b]pyridin-6-yl)-1-cyclopropyl-6-fluoro-1,4-dihydro-8-methoxy-4-oxoquinoline-3-carbothioate]",–,–
98.7%,"COc1c(N2CCNC(C)C2)c(F)cc2c(=O)c(C(=O)SCCCC(P(=O)(O)O)P(=O)(O)O)cn(C3CC3)c12 (centres unmarked) [Compound 96, S-4,4-bisphosphonobutyl 7-(3-methylpiperazin-1-yl)-1-cyclopropyl-6-fluoro-1,4-dihydro-8-methoxy-4-oxoquinoline-3-carbothioate]",–,–
99.0%,"COc1c(N2C[C@@H]3CCCN[C@@H]3C2)c(F)cc2c(=O)c(C(=O)SCC(=O)NC(P(=O)(O)O)P(=O)(O)O)cn(C3CC3)c12 [Compound 99, S-(1,1-Bisphosphonomethylcarbamoyl)methyl 1-cyclopropyl-6-fluoro-1,4-dihydro-7-((4aS,7aS)-octahydropyrrolo[3,4-b]pyridin-6-yl)-8-methoxy-4-oxoquinoline-3-carbothioate]",–,–
98.2%,"COc1c(N2C[C@@H]3CCCN(C(=O)CC(P(=O)(O)O)P(=O)(O)O)[C@@H]3C2)c(F)cc2c(=O)c(C(=O)O)cn(C3CC3)c12 [Compound 107, 7-((4aS,7aS)-1-(3,3-bisphosphonopropionyl)-octahydropyrrolo[3,4-b]pyridin-6-yl)-1-cyclopropyl-6-fluoro-1,4-dihydro-8-methoxy-4-oxoquinoline-3-carboxylic acid]",lack of effect,"Measured bacterial titer (Log CFU/g of bone) Test compound (S. aureus ATCC 13709; 19.4 mg/kg IV, 1 day prior to infection): 5.40 ± 0.93 Log CFU/g of bone"
82.5%,"COc1c(N2CCN(C(=O)CC(P(=O)(O)O)P(=O)(O)O)C(C)C2)c(F)cc2c(=O)c(C(=O)O)cn(C3CC3)c12 (centres unmarked) [Compound 112, 7-(4-(3,3-bisphosphonopropionyl)-3-methylpiperazin-1-yl)-1-cyclopropyl-6-fluoro-1,4-dihydro-8-methoxy-4-oxoquinoline-3-carboxylic acid]",–,–
99.4%,"COc1c(N2C[C@@H]3CCCN(C(=O)OCC(=O)Nc4ccc(CC(P(=O)(O)O)P(=O)(O)O)cc4)[C@@H]3C2)c(F)cc2c(=O)c(C(=O)O)cn(C3CC3)c12 [Compound 117, 7-((4aS,7aS)-1-(((4-(2,2-bisphosphonoethyl)phenylcarbamoyl)methoxy)carbonyl)-octahydropyrrolo[3,4-b]pyridin-6-yl)-1-cyclopropyl-6-fluoro-1,4-dihydro-8-methoxy-4-oxoquinoline-3-carboxylic acid]",–,–
63.7%,"COc1c(N2CCN(Cc3oc(=O)oc3-c3ccc(P(=O)(O)CP(=O)(O)O)cc3)C(C)C2)c(F)cc2c(=O)c(C(=O)O)cn(C3CC3)c12 (centres unmarked) [Compound 129, 1-Cyclopropyl-6-fluoro-1,4-dihydro-8-methoxy-7-(3-methyl-4-((2-oxo-5-(4-(phosphonomethylphosphinoyl)phenyl)-1,3-dioxol-4-yl)methyl)piperazin-1-yl)-4-oxoquinoline-3-carboxylic acid]",unable to produce a positive result in vivo,"binding to osseous matter, in words [1]: less effectively bound; Measured bacterial titer (Log CFU/g of bone) Test compound (S. aureus ATCC 13709; 10.75 mg/kg IV, 2 days prior to infection): 6.14 ± 1.05 Log CFU/g of bone"
92.8%,COc1c(N2CCNC(C)C2)c(F)cc2c(=O)c(C(=O)OCC(=O)NCCCC[C@@H](NC(=O)COC(=O)c3cn(C4CC4)c4c(OC)c(N5CCNC(C)C5)c(F)cc4c3=O)C(=O)NC(P(=O)(O)O)P(=O)(O)O)cn(C3CC3)c12 (some centres unmarked) [Compound 134],–,–

SMILES,Binding to bone (%) Fluorescence [1],"prophylactic effect in rat model of bone infection, in words (S. aureus ATCC 13709)",other results
"COc1c(N2CCN(CCC(=O)c3ccc(OCCCC(P(=O)(O)O)P(=O)(O)O)cc3)C(C)C2)c(F)cc2c(=O)c(C(=O)O)cn(C3CC3)c12 (centres unmarked) [Compound 121, 1-cyclopropyl-6-fluoro-1,4-dihydro-7-(4-(3-(4-(4,4-bisphosphonobutoxy)phenyl)-3-oxopropyl)-3-methylpiperazin-1-yl)-8-methoxy-4-oxoquinoline-3-carboxylic acid]",94.7%,efficient prophylactic effect,"Measured bacterial titer (Log CFU/g of bone) Test compound (S. aureus ATCC 13709; 20.8 mg/kg IV, 1 day prior to infection): 3.01 ± 0.47 Log CFU/g of bone"
"COc1c(N2CCN(C(=O)CC(C)(C)c3cc(P(=O)(O)CP(=O)(O)O)ccc3OC(=O)C(C)C)C(C)C2)c(F)cc2c(=O)c(C(=O)O)cn(C3CC3)c12 (centres unmarked) [Compound 145, 7-(4-(3-(2-(2,2-dimethylacetoxy)-5-((phosphonomethyl)phosphonoyl)phenyl)-3-methylbutanoyl)-3-methylpiperazin-1-yl)-1-cyclopropyl-6-fluoro-1,4-dihydro-8-methoxy-4-oxoquinoline-3-carboxylic acid]",76.0%,unable to produce a positive result in vivo,"binding to osseous matter, in words [1]: less effectively bound; Measured bacterial titer (Log CFU/g of bone) Test compound (S. aureus ATCC 13709; 47.2 mg/kg IV, 2 days prior to infection): 4.69 ± 0.78 Log CFU/g of bone"
